Experimental data taken from article PMC4904246 (Journal of Medicinal Chemistry, 2016).
In brackets after ≈: the same amount, converted by molar mass. Like-named read-outs stand apart in the source and are kept apart here. Marks after values point to notes of the source that are not given here.

Legend:
hERG K+ channel = hERG K+ channel (Homo sapiens, UniProt Q12809); conditions: human, plasma
[1] = plasma; cited from earlier work
[2] = rat plasma; cited from earlier work
[3] = mouse plasma; cited from earlier work
[4] = scaled; cited from earlier work
[5] = cited from earlier work
[6] = scaled; cited from earlier work; remark: listed apart in the source
[7] = cited from earlier work; remark: listed apart in the source
[8] = fed state simulated intestinal fluid, pH 5.8 (footnote c); cited from earlier work
[9] = system: P. falciparum Pf3D7_0087/N9 parasites; conditions: cited from earlier work
PvDHODH [10] = biological target: T1, PvDHODH (Plasmodium vivax, UniProt A5K1N1); conditions: read-out: PvDHODH IC50; previous reports; 2 from 15, 3 from 16; cited from earlier work
T1 sequence (A5K1N1 160-572): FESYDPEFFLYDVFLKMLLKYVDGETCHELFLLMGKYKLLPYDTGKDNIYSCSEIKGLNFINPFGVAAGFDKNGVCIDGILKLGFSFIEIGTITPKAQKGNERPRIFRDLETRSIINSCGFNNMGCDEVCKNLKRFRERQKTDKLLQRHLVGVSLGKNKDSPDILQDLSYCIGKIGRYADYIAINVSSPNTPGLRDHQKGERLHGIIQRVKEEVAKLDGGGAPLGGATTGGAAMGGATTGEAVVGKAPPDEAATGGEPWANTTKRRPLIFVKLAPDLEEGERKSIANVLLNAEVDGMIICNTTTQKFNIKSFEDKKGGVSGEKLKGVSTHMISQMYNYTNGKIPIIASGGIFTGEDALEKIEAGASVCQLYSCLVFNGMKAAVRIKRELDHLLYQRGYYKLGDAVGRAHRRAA

hDHODH [11] = biological target: T2, hDHODH (Homo sapiens, UniProt Q02127); conditions: read-out: hDHODH IC50; previous reports; 2 from 15, 3 from 16; cited from earlier work
P. falciparum 3D7 cells = conditions: read-out: EC50 Pf3D7 cells; previous reports; 2 from 15, 3 from 16; cited from earlier work
[12] = pH 6.5, 30 min at room temperature; cited from earlier work
[13] = kinetic aqueous solubility by nephelometry; format: physicochemical
[14] = plasma protein binding by ultracentrifugation, human plasma; format: in vitro ADME
[15] = plasma protein binding by ultracentrifugation, rat plasma; format: in vitro ADME
[16] = plasma protein binding by ultracentrifugation, mouse plasma; format: in vitro ADME
[17] = in vitro metabolism, human liver microsomes; format: in vitro ADME
[18] = in vitro metabolism, rat liver microsomes; format: in vitro ADME; conditions: from rat microsomal CLint using physiological scaling factors
[19] = in vitro metabolism, mouse liver microsomes; format: in vitro ADME
PvDHODH [20] = biological target: T1, PvDHODH; conditions: PvDHODH IC50 higher than PfDHODH IC50
in vivo = conditions: Sprague-Dawley, rat, plasma, iv
dog DHODH = dog DHODH (Canis lupus familiaris, UniProt A0A8I3MWX2); experiment: biochemical
hDHODH [21] = biological target: T2, hDHODH; conditions: read-out: DHODH IC50 human; Table 2; for 1 four independent replicates
hDHODH [22] = biological target: T2, hDHODH; experiment: biochemical
[23] = 1 QD, converted to different units
[24] = human, pooled human liver microsomes

T2 sequence (Q02127 31-395 limits assumed): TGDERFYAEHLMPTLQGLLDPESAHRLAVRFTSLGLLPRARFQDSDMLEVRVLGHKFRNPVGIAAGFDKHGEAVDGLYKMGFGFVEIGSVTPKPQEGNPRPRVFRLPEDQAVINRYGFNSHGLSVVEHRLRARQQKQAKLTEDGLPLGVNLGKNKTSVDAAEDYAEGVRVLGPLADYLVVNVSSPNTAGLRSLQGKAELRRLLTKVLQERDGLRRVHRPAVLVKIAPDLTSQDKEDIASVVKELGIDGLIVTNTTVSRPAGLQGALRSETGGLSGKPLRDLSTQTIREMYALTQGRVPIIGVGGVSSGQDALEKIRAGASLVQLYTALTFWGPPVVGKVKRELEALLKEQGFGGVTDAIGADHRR
dog DHODH, sequence (A0A8I3MWX2 1-406): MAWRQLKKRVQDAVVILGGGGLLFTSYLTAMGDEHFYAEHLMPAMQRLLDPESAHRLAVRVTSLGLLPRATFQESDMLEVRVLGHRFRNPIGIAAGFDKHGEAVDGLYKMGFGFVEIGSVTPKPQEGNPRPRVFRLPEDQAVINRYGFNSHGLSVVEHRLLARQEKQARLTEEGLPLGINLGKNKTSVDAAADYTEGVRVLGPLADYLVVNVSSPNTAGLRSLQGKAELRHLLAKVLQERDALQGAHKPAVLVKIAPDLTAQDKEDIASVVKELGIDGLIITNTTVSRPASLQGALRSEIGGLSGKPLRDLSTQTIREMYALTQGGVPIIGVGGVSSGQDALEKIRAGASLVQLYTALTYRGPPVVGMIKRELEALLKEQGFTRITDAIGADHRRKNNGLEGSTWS
hERG K+ channel, sequence (Q12809 whole entry): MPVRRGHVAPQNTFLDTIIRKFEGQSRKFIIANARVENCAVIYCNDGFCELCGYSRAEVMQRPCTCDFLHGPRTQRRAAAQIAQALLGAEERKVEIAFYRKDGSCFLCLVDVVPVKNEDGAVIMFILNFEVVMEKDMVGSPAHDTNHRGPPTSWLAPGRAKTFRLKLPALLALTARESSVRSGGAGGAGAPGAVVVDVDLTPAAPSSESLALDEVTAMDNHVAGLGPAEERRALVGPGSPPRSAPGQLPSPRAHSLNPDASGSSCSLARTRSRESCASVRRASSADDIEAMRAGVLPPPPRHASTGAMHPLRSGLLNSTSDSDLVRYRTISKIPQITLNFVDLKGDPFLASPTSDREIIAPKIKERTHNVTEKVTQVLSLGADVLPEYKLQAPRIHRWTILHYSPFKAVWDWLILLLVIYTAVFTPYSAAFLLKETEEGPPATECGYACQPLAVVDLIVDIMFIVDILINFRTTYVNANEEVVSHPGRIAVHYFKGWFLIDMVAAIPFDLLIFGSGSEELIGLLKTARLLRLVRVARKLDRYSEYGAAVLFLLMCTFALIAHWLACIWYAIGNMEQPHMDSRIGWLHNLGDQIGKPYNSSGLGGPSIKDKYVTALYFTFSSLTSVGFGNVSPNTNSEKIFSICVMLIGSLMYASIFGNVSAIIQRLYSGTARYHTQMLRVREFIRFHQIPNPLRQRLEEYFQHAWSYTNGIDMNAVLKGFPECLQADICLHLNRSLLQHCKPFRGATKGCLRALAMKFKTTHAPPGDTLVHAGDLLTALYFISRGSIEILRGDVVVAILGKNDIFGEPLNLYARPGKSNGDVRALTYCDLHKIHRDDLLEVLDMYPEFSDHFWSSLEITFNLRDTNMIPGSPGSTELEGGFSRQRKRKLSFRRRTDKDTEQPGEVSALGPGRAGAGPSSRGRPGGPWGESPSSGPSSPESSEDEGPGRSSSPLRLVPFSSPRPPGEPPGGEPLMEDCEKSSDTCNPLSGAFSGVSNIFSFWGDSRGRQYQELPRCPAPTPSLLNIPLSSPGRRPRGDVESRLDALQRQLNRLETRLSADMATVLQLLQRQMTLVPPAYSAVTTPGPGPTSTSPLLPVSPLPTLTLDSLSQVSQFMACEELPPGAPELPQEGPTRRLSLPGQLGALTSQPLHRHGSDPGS

## Cc1cc(Nc2ccc(S(F)(F)(F)(F)F)cc2)n2nc(C(C)(F)F)nc2n1 [Compound 1, 2-(1,1-difluoroethyl)-5-methyl-N-[4-(pentafluoro-λ^6-sulfanyl)phenyl]-[1,2,4]triazolo[1,5-a]pyrimidin-7-amine]
hERG K+ channel
  unbound plasma concentration at likely therapeutic doses lower than the IC50 for hERG channel inhibition: 70–320 fold
[1]
  PPB human (% bound): 99.9 % bound
[2]
  PPB rat (% bound): 97.7 % bound
[3]
  PPB mouse (% bound): 99.7 % bound
[4]
  predicted in vivo CLint human: 3.5 mL/min/kg
[5]; rat liver microsomes
  in vitro CLint rat: 1.8 μL/min/mg protein
[5]; rat, scaled
  predicted in vivo CLint rat: 3.1 mL/min/kg
[6]
  predicted in vivo CLint mouse: 7.2 mL/min/kg
[7]; rat IV […], […]
  apparent T1/2: 13 h
[7]; rat
  oral BA: 57%
[8]
  solubility FeSSIF pH 5.8: 27.6 ^c μg/mL
[9]; 1, QD dosing
  ED90: 8.1 mg/kg
[9]; [23]
  AUCED90: 45.7 μM·h/day
  ED90: 8.1 mg/kg/day

## Cc1cc(Nc2ccc3ccccc3c2)n2ncnc2n1 [Compound 2, (5-methyl[1,2,4]triazolo[1,5-a]pyrimidin-7-yl)naphthalen-2-ylamine]
PvDHODH [10]
  IC50: 0.23 µM
hDHODH [11]
  IC50: > 100 µM
P. falciparum 3D7 cells
  EC50: 0.068 µM
[4]
  predicted in vivo CLint human: 79 mL/min/kg
[6]
  predicted in vivo CLint mouse: 591 mL/min/kg
[12]
  kinetic solubility pH 6.5: 12.5–25 μg/mL

## Cc1cc(NC2CCc3cc(Br)ccc3C2)n2nc(C(C)(F)F)nc2n1 (stereo not shown) [Compound 11, 2-(1,1-Difluoroethyl)-N-(6-bromo-1,2,3,4-tetrahydronaphthalen-2-yl)-5-methyl-[1,2,4]triazolo[1,5-a]pyrimidin-7-amine]
[13]; pH 6.5, range following 30 min at room temperature
  kinetic solubility pH 6.5: 3.1–6.3 μg/mL
[14]
  PPB human (% bound): 99.0 % bound
[15]
  PPB rat (% bound): 99.7 % bound
[16]; mouse plasma, ultracentrifugation
  PPB mouse (% bound): 99.2 % bound
[17]; from human microsomal CLint using physiological scaling factors
  predicted in vivo CLint human: < 5.8 mL/min/kg
[17]; human liver microsomes
  in vitro CLint human: < 7 μL/min/mg protein
[18]
  predicted in vivo CLint rat: 19 mL/min/kg
[19]; from mouse microsomal CLint using physiological scaling factors
  predicted in vivo CLint mouse: 67 mL/min/kg
[19]; mouse liver microsomes
  in vitro CLint mouse: 26 μL/min/mg protein
PvDHODH [20]
  difference of IC50 P. vivax DHODH versus PfDHODH: 5–8 fold
In vivo
  clearance: 2.8 mL/min/kg
Dog DHODH
  IC50: > 100 µM

## Cc1cc(NC2CCc3ccc(Br)cc3C2)n2nc(C(C)(F)F)nc2n1 (stereo not shown) [Compound 13, 2-(1,1-Difluoroethyl)-N-(7-bromo-1,2,3,4-tetrahydronaphthalen-2-yl)-5-methyl-[1,2,4]triazolo[1,5-a]pyrimidin-7-amine]
[13]; pH 6.5 phosphate buffer, pH 6.5
  solubility kinetic at 30 min: 1.6 to 3.1 µg/mL (≈ 3.79 to 7.34 µM)
[14]
  PPB human (% bound): 96.3 % bound
[15]
  PPB rat (% bound): 97.2 % bound
[16]; approximation based on rat and human plasma protein binding data
  mouse PPB (% bound): 97.2 ^c % bound
[17]; [24]
  CLint scaled at 1 μM: < 5.8 mL/min/kg
  microsomal CLint at 1 μM: < 7 µL/min/mg
PvDHODH [20]
  difference of IC50 P. vivax DHODH versus PfDHODH: 1.5–3 fold
hDHODH [21]
  IC50: > 100 µM
In vivo
  clearance: 22.4 mL/min/kg
hDHODH [22]
  IC50: > 100 µM
Dog DHODH
  IC50: > 100 µM
